Data published in patent US12252712B2, “Use of engineered liver tissue constructs for modeling liver disorders” (Organovo, Inc., priority 2017, dated 2025).

What was measured:
Type in all cases: cell-based, human
[1] = system: bioprinted liver tissue construct; assay: Steatosis induction in bioprinted liver tissue constructs (H&E, PLIN-5, Oil Red O)
Excerpt: 3D bioprinted liver tissues comprised of cryopreserved primary human hepatocytes (Life Technologies, Carlsbad, CA, USA), hepatic stellate cells (ScienCell; Carlsbad, CA, USA), and HUVEC cells (Becton Dickinson; Tewksbury, MA, USA) were bioprinted directly into 24-well Transwell plates (FIG. 20A) using the Organovo NovoGen Bioprinter Instrument (Organovo, San Diego, CA, USA).
Briefly, hepatic stellate cells and HUVEC cells were propagated per the manufacturer's instructions prior to tissue fabrication. Cryopreserved hepatocytes were thawed and prepared for use per the manufacturer's instructions. Separate high density bioinks comprising parenchymal cells (100% cellular paste, generated via compaction having hepatocyte cells) or nonparenchymal cells (150e6 cells/mL of endothelial cells and hepatic stellate cells formulated in hydrogel) were prepared and loaded into separate heads of the NovoGen Bioprinter Instrument within a standard biosafety cabinet. A computer script was then executed to deposit the bioinks in a two-compartment planar geometry (2 mm^2×0.5 mm) onto the membranes of standard 24-well 0.4 μm transwell culture inserts (Corning, Tewksbury, MA USA) via continuous deposition microextrusion with the non-parenchymal cells comprising the border regions of each compartment and the parenchymal cells filling each compartment. Following fabrication, the tissues were fed daily with 600 μL of 3D Liver Tissue Media, consisting of DMEM supplemented with Primary Hepatocyte Maintenance Supplements (Life Technologies, Carlsbad, CA, USA) and EGM-2 (Lonza, Basel, Switzerland), and incubated at 37° C. under humidified atmospheric conditions supplemented with 5% CO2. Tissues were allowed to mature in culture for at least three days following fabrication prior to initiation of experimentation, and were substantially free of pre-formed scaffold at the time of use. For the one month timecourse, tissues were fed daily for a total of 28 days post-fabrication.
The bioprinted liver tissue construct of Example 6 was treated with nutrient-mediated accumulation to induce a steatosis phenotype. Specifically, to induce steatosis, a first liver tissue construct was treated with palmitic acid (PA) of varying concentrations (200 uM PA or 500 uM PA) daily for 3 weeks in the presence of high glucose media (DMEM-HG). A second liver tissue construct was treated with a 5% and 10% lipid mix of oleic acid (OC) to palmitic acid (PA) at a ratio of 2:1 daily for 3 weeks in the presence of high glucose media (DMEM-HG). Optionally, insulin or genipin (1 uM or 5 uM) can be used to stimulate fatty acid uptake into hepatocytes and enhance the fatty phenotype. […]
The technical challenge is to make a 3D, bioprinted liver tissue construct having the disorder without adversely affecting hepatocyte function or tissue health (albumin, LOH activity, ALT), which most closely recapitulates the benign nature of steatosis commonly observed in clinical steatosis. Tissue health were assessed at 7 day intervals using biochemical assays that measure hepatocellular function (i.e., albumin) and injury (i.e., LOH and ALT) with n≥5 per treatment group. Greater than 5% fatty infiltrate into hepatocytes is considered steatotic; therefore, morphometric and biochemical assays were conducted to quantify hepatic lipid content. Tissue morphology and extracellular matrix (ECM) deposition were assessed using H&E and Trichrome staining, respectively, at 7 day intervals. […]

[2] = system: immune competent bioprinted liver tissue constructs; assay: NASH induction in bioprinted liver tissue constructs, histology (H&E, trichrome, desmin/α-SMA, CK18)
Procedure: Kupffer cells (KCs) were added to the parenchymal region in the bioprinted liver tissue construct of Example 6.
Separate high density bioinks comprising parenchymal cells (100% cellular paste, generated via compaction having human hepatocyte cells and human Kupffer cells) or nonparenchymal cells (150e6 cells/mL of endothelial cells and hepatic stellate cells formulated in hydrogel) were prepared and loaded into separate heads of the NovoGen Bioprinter™ Instrument within a standard biosafety cabinet. A computer script was then executed to deposit the bioinks in a two-compartment planar geometry (2 mm^2×0.5 mm) onto the membranes of standard 24-well 0.4 μm transwell culture inserts (Corning, Tewksbury, MA USA) via continuous deposition microextrusion with the non-parenchymal cells comprising the border regions of each compartment and the parenchymal cells filling each compartment.
Here, the liver tissue construct having KCs was treated with 100 μg/ml of LPS and 500 uM palmitic acid daily for 21 days. LPS was used to activate the KCs in order to initiate inflammation. In turn, activated KCs release factors that activate hepatic stellate cells, which initiate fibrosis. […] Untreated tissues with and without KCs were used as controls.

bioprinted liver tissues = assay: Drug safety: alanine transferase (ALT) in culture medium of bioprinted liver tissues; conditions: diseased (NASH-induced with 12.5 mM fructose and 500 uM PA) tissue treated with OCA versus non-diseased tissue
Procedure: The assessment of drug safety was also investigated using the bioprinted liver tissue constructs. Non-diseased (vehicle-treated) or diseased (NASH-induced with 12.5 mM fructose and 500 uM PA) bioprinted liver tissues were treated with OCA, followed by measurement of alanine transferase (ALT) in the culture medium, a liver enzyme elevated with hepatocellular injury. […] Significance was determined by One-way ANOVA with Dunnets Multiple Comparisons Test, with the increase in ALT levels for diseased tissue following OCA treatment having a P<0.0001 as compared to diseased tissue without OCA treatment. This provides a proof of concept for application of the NASH model in assessment of differential toxicity.

[3] = system: bioprinted liver tissue constructs; assay: Caspase cleaved CK18 fragments (apoptosis) in bioprinted liver tissue constructs
[4] = system: bioprinted hepatic stellate cell tissues; assay: Stimulation of bioprinted hepatic stellate cell tissues with TGF-β1
Procedure: Cylindrical bio-ink comprising relevant heterogeneous (i.e., polytypic) cell populations were prepared. Physiologically-relevant populations (e.g., hepatic stellate cells (hSC) and human aortic endothelial cells (EC)) of cells were combined at specific ratios to generate proper bio-ink. Cells were maintained and propagated under standard laboratory conditions and cells were cultured in media either purchased from the same vendor as the cells, or media comprising components typically found in the primary literature to be conducive to standard cell culture practices for those particular cell types. Cell processing for bio-ink preparation was as follows: briefly, cells were liberated from standard tissue culture plastic by washing with cation-free phosphate buffered saline (PBS) and then exposed to 0.1-0.05% trypsin (Invitrogen). Liberated cells were then washed in serum-containing media, collected, counted, and combined in an appropriate ratio for the stimulation assay or experiment being conducted, and pelleted by centrifugation. Supernatant was then removed and the cell pellet was aspirated into a glass microcapillary, which was then submerged in complete media for approximately 15 to 20 minutes. This cylindrical bio-ink structure was then extruded into a non cell-adherent hydrogel mold, containing linear channels and held for 2 to 18 hours. Cylindrical bio-ink containing hSC: EC was then used to fabricate bioprinted tissue constructs and maintained and/or matured in a humidified chamber. Tissue segments were fabricated with initial dimensions of 1.25 mm×8 mm×0.25 mm (W×L×H). […]
The bioprinted neotissues were then submerged in serum-containing complete cell culture media and placed in a standard humidified chamber, supplemented with 5% CO2 for maturation. […] The bioprinted tissues were evaluated for characteristics such as, but not limited to for tissue morphology, cell organization, extracellular matrix production, cell proliferation, cell viability, and construct integrity. […]

[5] = system: bioprinted liver tissue construct with Kupffer cells; assay: Inflammatory cytokine release from bioprinted liver tissue constructs; conditions: co-treatment of LPS at 1 ug/mL with NASH induction, 14 days (FIG. 33)
Procedure: Tissue health were assessed at 7 day intervals using biochemical assays on spent media that measure hepatocellular function as outlined in Aim 1 (n≥5/group). Histological endpoints used to assess tissue morphology and composition (H&E, CD31, Desmin, E-cadherin, Albumin), ECM deposition (trichrome), hepatic stellate cell activation (desmin, a-smooth muscle actin ratio), lipid vacuoles (perilipin) and lipid content (Oil red 0) were measured at weekly intervals. In order to determine baseline cytokine production in response to lipid treatment, inflammatory cytokine release were measured at 7 day intervals via chemiluminescence with the V-Plex Pro-Inflammatory Panel (Meso Scale Discovery, Rockville, MD), which measures TNF-α, IL-113, IL-6, IL-8, IL-4, IL-2, IL-13, IL-12p70, IL-10, and interferon-y (IFN-y).

COC(=O)C1=CO[C@@H](O)[C@@H]2C(CO)=CC[C@H]12 [Genipin]
lipid accumulation fold change (Oil Red O, Image J) ([1]; 21 days, 5 μM Genipin added to 500 μM PA, vs 500 μM PA alone): did not further increase lipid accumulation

CCCCCCCC/C=C\CCCCCCCC(=O)O [OA, Oleic Acid]
lipid droplet (LD) size ([1]; 14 days of treatment (FIG. 27)): larger sizes of LD's | fibrosis (TCM) ([2]; 7 days, 1 mM (FIG. 28A)): less fibrosis | macrovesicular steatosis (H&E) ([2]; 7 days, 1 mM (FIG. 28A)): increased incidence of macrovesicular steatosis

CC[C@H]1[C@@H](O)[C@@H]2[C@H](CC[C@]3(C)[C@@H]([C@H](C)CCC(=O)O)CC[C@@H]23)[C@@]2(C)CC[C@@H](O)C[C@@H]12 [OCA, Obeticholic Acid]
alanine transferase (ALT) in the culture medium (bioprinted liver tissues): increased ALT

O=C(CO)[C@@H](O)[C@H](O)[C@H](O)CO [fructose]
fibrosis (TCM) ([2]; 14 days, fructose 20 mM, OA or OA:PA 0.5 mM, vs controls (FIG. 32)): increased fibrosis | fibrosis (TCM) ([2]; 21 days, fructose 12.5 mM, PA 0.5 mM, vs controls (FIG. 31)): increased fibrosis

CCCCCCCCCCCCCCCC(=O)O [palmitic acid]
steatotic phenotype (incidence and size of lipid droplets, PLIN 5 staining) ([1]; 200 μM and 500 μM, daily for 21 days, vs untreated controls): induces a steatotic phenotype | lipid accumulation fold change (Oil Red O, Image J) ([1]; 21 days, 500 μM vs 200 μM (FIG. 25B)): greater accumulation of lipid droplets | lipid accumulation (Oil Red O, morphometric quantification) ([1]; 21 days, 200 and 500 uM, vs controls (FIG. 22)): significant dose-dependent increase in lipid accumulation | fibrosis (TCM) ([2]; 7 days, 1 mM (FIG. 28A)): increased incidence | putative ballooned hepatocytes (H&E) ([2]; 7 days, 1 mM (FIG. 28A)): increased incidence of putative ballooned hepatocytes | caspase cleaved cytokine (CK) 18 fragments ([3]; 7 days, 1 mM, vs all other FFA treatments and untreated controls (FIG. 28B)): significantly higher levels | cytotoxicity ([3]; FIG. 28(B)): increased cytotoxicity

TGF-β1: cytokine used to elicit a tissue-specific response
cell density (Trichrome) ([4]; 0-50 ng/mL (FIG. 15)): dramatic decreases in cell density | collagen deposition and construct size (Trichrome) ([4]; 0-50 ng/mL (FIG. 15)): increases in collagen deposition and construct size | tissue outgrowth formation (gross observation) ([4]; increasing concentrations 0, 1, 10, 50 ng/mL (FIG. 15)): increases in tissue outgrowth formation

lipopolysaccharide [LPS]
putative hepatocellular ballooning ([2]; 21 days of PA and fructose (12.5 mM) with constitutive 10 ug/mL treatment, vs controls (FIG. 43)): also observed | fibrosis and hepatocellular ballooning ([2]; 21 days of PA and fructose (12.5 mM) with constitutive 100 ug/mL LPS (FIG. 43)): high degree of fibrosis with putative hepatocellular ballooning | cytokine levels (IL-10, IL-1β, TNF-α, IL-6) [5]: significantly increased above NASH induction only
